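96-well plates; 48 h exposure; 5 concentrations. Endpoints by linear interpolation between flanking doses. Not reached: highest tested concentration assigned. At the TGI there is no net growth.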
Key:
Test in all cases: NCI-60 cell line screen, 48 h
UACC-62 melanoma = system: UACC-62 melanoma
OVCAR-8 ovarian = system: OVCAR-8 ovarian
SK-MEL-2 melanoma = system: SK-MEL-2 melanoma
NCI-H522 lung = system: NCI-H522 lung
HL-60(TB) leukemia = system: HL-60(TB) leukemia
PC-3 prostate = system: PC-3 prostate
U251 CNS = system: U251 CNS
HCT-15 colon = system: HCT-15 colon
SK-MEL-28 melanoma = system: SK-MEL-28 melanoma
SK-MEL-5 melanoma = system: SK-MEL-5 melanoma
UACC-257 melanoma = system: UACC-257 melanoma
MDA-N = system: MDA-N
ACHN renal = system: ACHN renal
TK-10 renal = system: TK-10 renal
K-562 leukemia = system: K-562 leukemia
KM12 colon = system: KM12 colon
OVCAR-5 ovarian = system: OVCAR-5 ovarian
786-0 renal = system: 786-0 renal
HT29 colon = system: HT29 colon
NCI-H226 lung = system: NCI-H226 lung
EKVX NSCLC = system: EKVX NSCLC
SN12C renal = system: SN12C renal
MDA-MB-231 breast = system: MDA-MB-231 breast
MCF7 breast = system: MCF7 breast
NCI-H460 lung = system: NCI-H460 lung
HOP-92 NSCLC = system: HOP-92 NSCLC
HOP-62 NSCLC = system: HOP-62 NSCLC
MDA-MB-435 = system: MDA-MB-435
SNB-19 CNS = system: SNB-19 CNS
IGROV1 ovarian = system: IGROV1 ovarian
MOLT-4 leukemia = system: MOLT-4 leukemia
SF-539 CNS = system: SF-539 CNS
RXF 393 renal = system: RXF 393 renal
OVCAR-3 ovarian = system: OVCAR-3 ovarian
SW-620 colon = system: SW-620 colon
NCI-H23 lung = system: NCI-H23 lung
SK-OV-3 ovarian = system: SK-OV-3 ovarian
CCRF-CEM leukemia = system: CCRF-CEM leukemia
MALME-3M melanoma = system: MALME-3M melanoma
SF-295 CNS = system: SF-295 CNS
RPMI-8226 leukemia = system: RPMI-8226 leukemia
HCT-116 colon = system: HCT-116 colon
T-47D breast = system: T-47D breast
OVCAR-4 ovarian = system: OVCAR-4 ovarian
HCC-2998 colon = system: HCC-2998 colon
DU-145 prostate = system: DU-145 prostate
LOX IMVI melanoma = system: LOX IMVI melanoma
NCI/ADR-RES ovarian = system: NCI/ADR-RES ovarian
M14 melanoma = system: M14 melanoma
A498 renal = system: A498 renal
HS 578T breast = system: HS 578T breast
A549 NSCLC = system: A549 NSCLC
CAKI-1 renal = system: CAKI-1 renal
SR leukemia = system: SR leukemia
SF-268 CNS = system: SF-268 CNS
COLO 205 colon = system: COLO 205 colon
UO-31 renal = system: UO-31 renal
SNB-75 CNS = system: SNB-75 CNS

`N/C(=N\N=C\c1ccc2c(c1)OCO2)NO` gave a TGI (UACC-62 melanoma) of 49.2 µM, a TGI (OVCAR-8 ovarian) of 40 µM and a TGI (SK-MEL-2 melanoma) of 61.1 µM. For the same compound, the TGI (NCI-H522 lung) was > 100 µM, the TGI (HL-60(TB) leukemia) was 36 µM and the TGI (PC-3 prostate) was > 100 µM. The TGI (U251 CNS) was > 100 µM, the TGI (HCT-15 colon) was > 100 µM and the TGI (SK-MEL-28 melanoma) was > 100 µM. The TGI (SK-MEL-5 melanoma) was 35.2 µM, the TGI (UACC-257 melanoma) was > 100 µM and the TGI (MDA-N) was > 100 µM. The TGI (ACHN renal) was 47.9 µM, the TGI (TK-10 renal) was > 100 µM and the TGI (K-562 leukemia) was 50.7 µM. For the same compound, the TGI (KM12 colon) was 63.6 µM, the TGI (OVCAR-5 ovarian) was > 100 µM and the TGI (786-0 renal) was 37.7 µM. The TGI (HT29 colon) was > 100 µM, the TGI (NCI-H226 lung) was 40.8 µM and the TGI (EKVX NSCLC) was > 100 µM. For the same compound, the TGI (SN12C renal) was > 100 µM, the TGI (MDA-MB-231 breast) was > 100 µM and the TGI (MCF7 breast) was > 100 µM. The TGI (NCI-H460 lung) was > 100 µM, the TGI (HOP-92 NSCLC) was 83.1 µM and the TGI (HOP-62 NSCLC) was 66.7 µM. The TGI (MDA-MB-435) was > 100 µM, the TGI (SNB-19 CNS) was > 100 µM and the TGI (IGROV1 ovarian) was 88.3 µM. For the same compound, the TGI (MOLT-4 leukemia) was 77.5 µM, the TGI (SF-539 CNS) was 56.5 µM and the TGI (RXF 393 renal) was > 100 µM. The TGI (OVCAR-3 ovarian) was 59.1 µM, the TGI (SW-620 colon) was > 100 µM and the TGI (NCI-H23 lung) was 98.8 µM. The TGI (SK-OV-3 ovarian) was > 100 µM, the TGI (CCRF-CEM leukemia) was 51.1 µM and the TGI (MALME-3M melanoma) was 86.8 µM. The TGI (SF-295 CNS) was > 100 µM, the TGI (RPMI-8226 leukemia) was 56.9 µM and the TGI (HCT-116 colon) was 59.8 µM. For the same compound, the TGI (T-47D breast) was > 100 µM, the TGI (OVCAR-4 ovarian) was > 100 µM and the TGI (HCC-2998 colon) was > 100 µM. It also gave a TGI (DU-145 prostate) of 99 µM, a TGI (LOX IMVI melanoma) of 82.5 µM and a TGI (NCI/ADR-RES ovarian) of 23.1 µM. For the same compound, the TGI (M14 melanoma) was 32.5 µM, the TGI (A498 renal) was 56.5 µM and the TGI (HS 578T breast) was > 100 µM. For the same compound, the TGI (A549 NSCLC) was > 100 µM, the TGI (CAKI-1 renal) was > 100 µM and the TGI (SR leukemia) was 31.7 µM. The TGI (SF-268 CNS) was 75.4 µM and the TGI (COLO 205 colon) was 40.3 µM.

For `CN(NC(=O)/C(=C/c1ccc(O)cc1)NC(=O)c1ccccc1)c1ccnc2cc(Cl)ccc12`, the TGI (UACC-62 melanoma) was 31.8 µM, the TGI (UO-31 renal) was 18.6 µM and the TGI (OVCAR-8 ovarian) was 47 µM. For the same compound, the TGI (SK-MEL-2 melanoma) was 44.4 µM, the TGI (NCI-H522 lung) was 60.7 µM and the TGI (HL-60(TB) leukemia) was 5.84 µM. For the same compound, the TGI (PC-3 prostate) was 32.7 µM, the TGI (U251 CNS) was 28.5 µM and the TGI (SK-MEL-28 melanoma) was 38.1 µM. For the same compound, the TGI (SK-MEL-5 melanoma) was 37.5 µM, the TGI (UACC-257 melanoma) was 33.9 µM and the TGI (MDA-N) was 32.2 µM. For the same compound, the TGI (ACHN renal) was 33 µM, the TGI (TK-10 renal) was 30 µM and the TGI (K-562 leukemia) was 30.5 µM. It also gave a TGI (KM12 colon) of 35.8 µM, a TGI (OVCAR-5 ovarian) of 50.5 µM and a TGI (786-0 renal) of 35.8 µM. The TGI (HT29 colon) was 23 µM, the TGI (NCI-H226 lung) was 32.7 µM and the TGI (EKVX NSCLC) was 42.9 µM. The TGI (SN12C renal) was 48.6 µM, the TGI (MDA-MB-231 breast) was 40.4 µM and the TGI (MCF7 breast) was 30.4 µM. For the same compound, the TGI (NCI-H460 lung) was 31.2 µM, the TGI (HOP-92 NSCLC) was 32.2 µM and the TGI (HOP-62 NSCLC) was 30.1 µM. The TGI (MDA-MB-435) was 32.3 µM, the TGI (SNB-19 CNS) was 32.6 µM and the TGI (IGROV1 ovarian) was 34.1 µM. For the same compound, the TGI (MOLT-4 leukemia) was 43 µM, the TGI (SF-539 CNS) was 43.3 µM and the TGI (RXF 393 renal) was 32 µM. The TGI (OVCAR-3 ovarian) was 31.2 µM, the TGI (SW-620 colon) was 47.2 µM and the TGI (SK-OV-3 ovarian) was 36.6 µM. It also gave a TGI (CCRF-CEM leukemia) of 61.5 µM, a TGI (MALME-3M melanoma) of 39.8 µM and a TGI (SF-295 CNS) of 32.3 µM. The TGI (RPMI-8226 leukemia) was 40.7 µM, the TGI (HCT-116 colon) was 38.2 µM and the TGI (T-47D breast) was 45.6 µM. For the same compound, the TGI (OVCAR-4 ovarian) was 33.6 µM, the TGI (HCC-2998 colon) was 33.3 µM and the TGI (SNB-75 CNS) was 22.8 µM. It also gave a TGI (DU-145 prostate) of 56.9 µM, a TGI (LOX IMVI melanoma) of 37.2 µM and a TGI (NCI/ADR-RES ovarian) of 38 µM. For the same compound, the TGI (M14 melanoma) was 36.6 µM, the TGI (A498 renal) was 32.4 µM and the TGI (HS 578T breast) was 48.2 µM. The TGI (A549 NSCLC) was 38.4 µM, the TGI (CAKI-1 renal) was 33.8 µM and the TGI (SR leukemia) was 10.4 µM. For the same compound, the TGI (SF-268 CNS) was 36 µM and the TGI (COLO 205 colon) was 36.2 µM.

In the case of `CCOC(=O)c1c(SC(=O)c2cc(OC)c(OC)c(OC)c2)n(-c2ccccc2)c(=S)n(-c2ccccc2)c1=O`, the TGI (UACC-62 melanoma) is reported as > 100 µM, the TGI (OVCAR-8 ovarian) is reported as > 100 µM and the TGI (NCI-H522 lung) is reported as > 100 µM. The TGI (HL-60(TB) leukemia) was > 100 µM, the TGI (PC-3 prostate) was > 100 µM and the TGI (U251 CNS) was > 100 µM. For the same compound, the TGI (HCT-15 colon) was > 100 µM, the TGI (SK-MEL-28 melanoma) was > 100 µM and the TGI (UACC-257 melanoma) was > 100 µM. The TGI (MDA-N) was > 100 µM, the TGI (ACHN renal) was > 100 µM and the TGI (TK-10 renal) was > 100 µM. The TGI (K-562 leukemia) was > 100 µM, the TGI (KM12 colon) was > 100 µM and the TGI (OVCAR-5 ovarian) was > 100 µM. The TGI (786-0 renal) was > 100 µM, the TGI (HT29 colon) was > 100 µM and the TGI (NCI-H226 lung) was > 100 µM. The TGI (EKVX NSCLC) was > 100 µM, the TGI (SN12C renal) was > 100 µM and the TGI (MDA-MB-231 breast) was > 100 µM. For the same compound, the TGI (MCF7 breast) was > 100 µM, the TGI (NCI-H460 lung) was > 100 µM and the TGI (HOP-92 NSCLC) was > 100 µM. For the same compound, the TGI (HOP-62 NSCLC) was > 100 µM, the TGI (MDA-MB-435) was > 100 µM and the TGI (SNB-19 CNS) was > 100 µM. The TGI (IGROV1 ovarian) was > 100 µM, the TGI (MOLT-4 leukemia) was > 100 µM and the TGI (SF-539 CNS) was > 100 µM. The TGI (RXF 393 renal) was > 100 µM, the TGI (OVCAR-3 ovarian) was > 100 µM and the TGI (SW-620 colon) was > 100 µM. The TGI (NCI-H23 lung) was > 100 µM, the TGI (SK-OV-3 ovarian) was > 100 µM and the TGI (CCRF-CEM leukemia) was > 100 µM. For the same compound, the TGI (MALME-3M melanoma) was > 100 µM, the TGI (SF-295 CNS) was > 100 µM and the TGI (HCT-116 colon) was > 100 µM. For the same compound, the TGI (T-47D breast) was > 100 µM, the TGI (OVCAR-4 ovarian) was > 100 µM and the TGI (HCC-2998 colon) was > 100 µM. The TGI (SNB-75 CNS) was > 100 µM, the TGI (DU-145 prostate) was > 100 µM and the TGI (LOX IMVI melanoma) was > 100 µM. For the same compound, the TGI (NCI/ADR-RES ovarian) was > 100 µM, the TGI (M14 melanoma) was > 100 µM and the TGI (A498 renal) was > 100 µM. The TGI (HS 578T breast) was > 100 µM, the TGI (A549 NSCLC) was > 100 µM and the TGI (CAKI-1 renal) was > 100 µM. For the same compound, the TGI (SR leukemia) was > 100 µM, the TGI (SF-268 CNS) was > 100 µM and the TGI (COLO 205 colon) was > 100 µM.
